In brackets after ≈: the same amount, converted by molar mass. Where two headings read alike, the source gives them in different places.
Legend:
Serratia marcescens = experiment: Comparative MIC experiment, Zicao extract vs Shikonin compounds
[1] = system: Staphylococcus epidermidis; experiment: as above
[2] = system: Gram-positive staphylococcus aureus; experiment: Drug sensitivity test (MIC)
S180 = experiment: Animal test of tumor restraint; type: in vivo
[3] = system: aspergillus fumigatus, cryptococcus and red trichophyton; experiment: In vitro antifungal test; type: cell-based
DHBV = experiment: Virus restraint in DHBV-infected duck; type: in vivo; conditions: oral, 100mg/kg twice a day, 10 days
stenotrophomonas bacilli = experiment: Drug sensitivity test (MIC)
mycoplasma pneumoniae = experiment: Bacteriostatic effect on mycoplasma
[4] = system: Ascitic tyre liver cancer; experiment: Animal test of tumor restraint; type: in vivo
dermatophyte = experiment: In vitro antifungal test; type: cell-based
Candida albicans = experiment: Comparative MIC experiment, Zicao extract vs Shikonin compounds
bacteroides fragilis = experiment: Drug sensitivity test (MIC)
Bacteroid = experiment: Comparative MIC experiment, Zicao extract vs Shikonin compounds; type: cell-based
candida and cryptococcus = experiment: In vitro antifungal test; type: cell-based
Pseudallescheria boydii = experiment: In vitro antifungal test; type: cell-based; conditions: Scedosporium boydii
Lewis lung cancer = experiment: Animal test of tumor restraint; type: in vivo
pneumobacillus = experiment: Drug sensitivity test (MIC)
Helicobacter pylori = experiment: Drug sensitivity test (MIC)
C.krusei = experiment: In vitro antifungal test; type: cell-based; conditions: Pichia kudriavzevii
W256 = experiment: Animal test of tumor restraint; type: in vivo
red trichophyton = experiment: In vitro antifungal test; type: cell-based
cryptococcus neoformans = experiment: In vitro antifungal test; type: cell-based
L1210 = experiment: Animal test of tumor restraint; type: in vivo
[5] = Gram-positive staphylococcus aureus
[6] = stenotrophomonas bacilli, stated as especially effective, compared with berberine
[7] = bacteroid, especially bacteroides fragilis

SMILES	Tumor inhibitory rate (S180) [%]	MIC (stenotrophomonas bacilli; Stenotrophomonas) [µg/mL]	Life prolonged rate [4] [%]	MIC (dermatophyte) [µg/mL]	MIC90 (dermatophyte) [µg/mL]	Tumor inhibitory rate (Lewis lung cancer) [%]	MIC (pneumobacillus)	MIC (pneumobacillus; some bacterial strains)	MIC (Helicobacter pylori)	MIC [2, 5]	MIC (stenotrophomonas bacilli; [6])	MIC (mycoplasma pneumoniae; mycoplasma pneumoniae)	MIC (bacteroides fragilis; [7])	other results
CC(C)=CCC(OC(=O)C=C(C)C)C1=CC(=O)c2c(O)ccc(O)c2C1=O (stereo not drawn)	9.63	0.391 to 0.781 (≈ 1.06 to 2.11 µM)	113.4	4.16 to 8.32 (≈ 11.2 to 22.5 µM)	4.16 (≈ 11.2 µM)	42.8	0.391 to 6.25 µg/mL (≈ 1.06 to 16.9 µM)	12.5 to 50 µg/mL (≈ 33.7 to 135 µM)	0.391 to 0.781 µg/mL (≈ 1.06 to 2.11 µM)					MIC (Serratia marcescens): 0.781 µg/mL (≈ 2.11 µM); MIC [1]: 0.391 µg/mL (≈ 1.06 µM); MIC ([2]; Staphylococcus aureus): 0.391 to 12.5 µg/mL (≈ 1.06 to 33.7 µM); MIC [3]: 3.06 to 250 µg/mL (≈ 8.27 to 675 µM); toxic reaction (DHBV): without toxic reaction; MIC (mycoplasma pneumoniae; Mycoplasma): 2 µg/mL (≈ 5.4 µM); MIC (Candida albicans): 3.91 µg/mL (≈ 10.5 µM); MIC (bacteroides fragilis; Bacteroides fragilis): 0.391 to 6.25 µg/mL (≈ 1.06 to 16.9 µM); MIC (Bacteroid): 0.391 µg/mL (≈ 1.06 µM); MIC (candida and cryptococcus): 2.08 to 33.3 µg/mL (≈ 5.62 to 89.9 µM); MIC90 (candida and cryptococcus): 33.3 µg/mL (≈ 89.9 µM); MIC (Pseudallescheria boydii): 4.16 to 8.32 µg/mL (≈ 11.2 to 22.5 µM); MIC (C.krusei): 8.32 to 16.6 µg/mL (≈ 22.5 to 44.8 µM)
CC(=O)O[C@H](CC=C(C)C)C1=CC(=O)c2c(O)ccc(O)c2C1=O [Acetylshikonin]	35.7		112.6			52.6	0.391-6.25 ì g/ml	12.5-50 ì g/ml	0.391 - 0.781 ì g/ml	0.391-12.5 ì g/ml	0.391-0.781 ì g/ml	7.819 ì g/ml	0.391-6.25 ì g/ml	Tumor inhibitory rate (W256): 77%; MIC (red trichophyton): 0.9062- 62.5 ¦Ìg/ml; MIC (cryptococcus neoformans): 3.906 ¦Ìg/ml; Tumor inhibitory rate [4]: 47.8%; Life prolonged rate (L1210): 128%
CC(C)=CC[C@@H](O)C1=CC(=O)c2c(O)ccc(O)c2C1=O [Shikonin]			130.8				0.391-6.25 ì g/ml	12.5-50 ì g/ml	0.391 - 0.781 ì g/ml	0.391-12.5 ì g/ml	0.391-0.781 ì g/ml	3.751 ì g/ml	0.391-6.25 ì g/ml	
COc1ccc2cc3[n+](cc2c1OC)CCc1cc2c(cc1-3)OCO2 [berberine, reference compound]		8 to 32												
OC(Cn1cncn1)(Cn1cncn1)c1ccc(F)cc1F [fluconazole, reference compound]				32 to 64 (≈ 104 to 209 µM)	64 (≈ 209 µM)									

From patent EP1595536A1, “PHARMACEUTICALS COMPRISING SHIKONINS AS ACTIVE CONSTITUENT” (Beijing JBC Chinese Traditional Medicine Science and …, priority 2003, dated 2004)
